Assay [1] has as its system angiotensin converting enzyme (ACE). The settings on record: literature, WO 89/12627, cited from earlier work.
The subject of assay [2] is rat aorta contracted using phenylephrine. The following applies: cited from earlier work.
Assay [3] concerns arterial blood pressure. In words: Anesthetized rabbit experiments: arterial blood pressure and heart rate after infusion. Note: key: Inactive: No decrease or decrease less than 5%; Active: Decrease between 5 and 40%; Very Active: Decrease greater than 40%. It counts as in vivo, New Zealand white rabbits. The following applies: anesthetized rabbit; end of 10 min infusion at highest dose tested (150-200 μg×kg^-1×min^-1); decrease as percentage of basal value. As to the method:
In the anesthetized rabbits, the decrease of arterial blood pressure and the effect on the heart rate after infusion of the test compounds was determined.
New Zealand white rabbits (2.5-3 kg) were anesthetized (30 mg×kg^-1 pentobarbitone, i.v., supplemental doses as needed). Tracheotomy was performed, and an intra-tracheal cannula was inserted. No artificial ventilation was applied and body temperature was maintained at 37°-38° C.
Left ventricular pressure (LVP) was measured (Millar Mikro-Tip catheter via the right carotid artery with transducer in the left ventricle). The LVP signal was differentiated electronically to obtain the rate of change of LVP (LV dP/dt). The heart rate (HR) was derived from the LVP pulse signal. The jugular vein was cannulated for infusion of the test compounds. Aortic blood pressure (SAP and DAP) was monitored (Gould-Statham pressure transducer) by inserting a polyethylene catheter filled with heparin (50 IU×ml^-1) through the femoral artery into the abdominal aorta. Heparin (150 IU×kg^-1, i.v.) was administered to prevent blood clotting.
After completion of surgical procedures, the rabbits were allowed to recover for 15 minutes before drug administration was started.
Drugs were infused at constant rate (0.5 ml×min^-1) for 10 minutes at various doses, resulting in a typical dose range of 2.0, 20.0 and 200 μg×kg^-1 ×min^-1 (2.5 kg rabbit).
Due to poor solubility, 1 mg×ml^-1 solutions of all the compounds tested were prepared in Intralipid® 10%, containing 10% (v/v) dimethyl sulfoxide (DMSO). […] At the infusion of lower doses, the 1 mg×ml^-1 stock solutions were diluted with Intralipid® 10%.
The presented data are based on the effects obtained at the end of the 10 min infusion period at the highest dose tested (150-200 μg×kg^-1 ×min^-1). The indicated ratings are referring to the effects (decrease, defined as percentage of basal value before infusion of the drug) on arterial blood pressure as follows: […]

The subject of assay [4] is contracted rat aorta. As to the kind of experiment: In vitro rat aorta assay: relaxation of aorta strips contracted with phenylephrine. Type of assay: cell-based. The settings on record: rat aorta strips contracted with 10^-7 M phenylephrine; read-out: EC50 (mean): concentration at which residual contraction is 50% of maximum. As for the experimental part:
Strips of thoracial rat aortae (without aortic arch, helically cut; length 1-1.5 cm; width about 2 mm) were place in an organ bath [20 ml; Krebs Ringer medium bubbled with O2 /CO2 (95/5%) at 37° C.]. A resting tension of 0.5 g was applied and the preparations were equilibrated during 100 min (fresh buffer solution every 20 min). The strips were isotonically contracted with 10^-7 M phenylephrine.
Drug-induced relaxation was tested at increasing concentration (half log steps), till maximal or full relaxation (corresponding to basal precontraction value of organ length) had been reached.
Responses were calculated as change in organ length relatively to maximal displacement by contraction, EC50 values corresponding to the drug concentration at which residual contraction is 50% of maximum.

With `C[C@H](CSN=O)C(=O)N1CCC[C@H]1C(=O)O` [S-ni-trosocaptopril], the “ACE-inhibiting effect compared with captopril (in words)” value in assay [1] is listed as “comparable to that of captopril”. Besides, the IC50 (commonly the concentration that gives 50% inhibition) in assay [1] (read-out: ACE-inhibiting effect IC50) is ~1 nM; in assay [2] (rat aorta contracted using phenylephrine, read-out: relaxing effect via the NO portion, IC50) it was ~100 nM. Further, the “relaxing concentration relative to ACE-inhibiting concentration” value in assay [2] (relaxation IC50 vs ACE-inhibition IC50) is “about 100 times higher”.
For `CCOC(=O)[C@@H]1CSC(c2ccccc2OCCO[N+](=O)[O-])N1` (stereo partly drawn) [XXVIII, 4-Ethoxycarbonyl-2-[2-(2-nitroxyethoxy)phenyl]thiazolidine 4-toluenesulphonate], in assay [3], the “Activity with regard to the lowering of blood pressure” value is reported as “Active”. For the same molecule, in assay [4], the EC50 came to 9.4 nM.

(Values after patent US5385922A, “Thiazolidine derivatives” (Cedona Pharmaceuticals B.V., priority 1990, dated 1995).)
